The target of data set [1] is T1, PTP1B (Homo sapiens, UniProt P18031).
T1 sequence (P18031 1-435): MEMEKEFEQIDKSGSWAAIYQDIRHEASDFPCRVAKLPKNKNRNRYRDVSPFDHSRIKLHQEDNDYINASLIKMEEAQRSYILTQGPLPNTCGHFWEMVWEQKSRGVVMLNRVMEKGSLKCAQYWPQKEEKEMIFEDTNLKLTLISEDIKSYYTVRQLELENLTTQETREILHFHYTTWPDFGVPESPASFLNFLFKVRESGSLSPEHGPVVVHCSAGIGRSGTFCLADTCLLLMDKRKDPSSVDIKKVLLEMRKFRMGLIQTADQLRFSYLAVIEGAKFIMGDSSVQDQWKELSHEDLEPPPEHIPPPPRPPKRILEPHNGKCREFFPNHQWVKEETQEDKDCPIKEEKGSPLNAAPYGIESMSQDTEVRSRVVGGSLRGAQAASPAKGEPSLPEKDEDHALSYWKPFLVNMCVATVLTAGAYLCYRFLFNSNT
As to the kind of experiment: PTP1B inhibitory assay (pNPP, spectrocolorimetric). It counts as biochemical. The settings on record: pNPP substrate; three independent determinations. How it is done:
To test the inhibitory activity of the compounds against PTP1B, a spectrocolorimetric method previously described was employed. The compounds and positive control were dissolved in DMSO or buffer solution [50 mM; Tris-HCI Buffer, pH 6.8], DL-dithiothreitol 1.5 mM, all from Sigma–Aldrich, St. Louis, MO, USA. Aliquots of 0–10 μL of testing compounds (triplicated) were incubated for 10 min at 37 °C with 85 μL of enzyme stock solution (3 μM) in buffer solution. After incubation, 5 μL of the substrate p-nitrophenyl phosphate (pNPP, 0.5 mM, Sigma–Aldrich, St. Louis, MO, USA) were added and incubated a further 25 min at 37 °C; then, the absorbance was recorded at 415 nm.

Data set [2] deals with T1, PTP1B. As to the kind of experiment: Enzyme kinetics of PTP1B inhibition. The settings on record: for Inhibition Type: best fit of competitive vs non-competitive model, Lineweaver-Burk; for Ki: non-linear regression of saturation curves at fixed inhibitor concentrations. Type of data set: biochemical. How it is done: The kinetic studies were carried out under the same conditions described above. Different saturation curves were constructed at fixed inhibitor concentrations. The different inhibitor concentrations were determined based on the previously determined IC50 for each compound. Subsequently, the data obtained were analyzed through a non-linear regression, using OriginPro version 2018 (64-bit) SR1 (Northamton MA, USA, https://www.originlab.com) (accessed on 2 April 2021), adjusting to the following mathematical models:
And non-competitive: y=Vm×s^nh/(1+i/Ki)×S05^nh+(1+i/Ki)×s^nh where Vm is the maximum velocity, S and i are the concentration of substrate and inhibitor, respectively; Ki is the inhibition constant, and nh is the number of Hill.
Additionally, Lineweaver–Burk graphs were constructed to visualize the type of inhibition graphically.

Entries after “also recorded” stand apart in the source; their conditions may differ.

For orientation: IC50 means the midpoint of a concentration-inhibition curve. High values mean lower potency, low ones higher potency. Usually Ki stands for the dissociation constant of the complex between target and ligand, obtained from inhibition or displacement. Read a low Ki as tighter binding. What is called melting point is the temperature of the solid-liquid transition.

For `CC1(C)[C@@H](OC(=O)CCC(=O)O)CC[C@]2(C)[C@H]3C(=O)C=C4[C@@H]5C[C@@](C)(C(=O)O)CC[C@]5(C)CC[C@@]4(C)[C@]3(C)CC[C@@H]12` [CA, carbenoxolone, reference compound], the IC50 in data set [1] was determined as 69.7 ± 6.98 µM.

Consider `CC(C)CCC[C@@H](C)[C@H]1CC[C@H]2[C@@H]3C[C@@H](NCCCNCCCCNCCCN)[C@H]4C[C@@H](O)CC[C@]4(C)[C@H]3CC[C@]12C` [CL, claramine], for which the IC50 in data set [1] stood at 13.7 ± 0.11 µM. In data set [2], the “Inhibition Type” value is “non-competitive inhibition” and the Ki was found to be 15.4 ± 1.7 µM.

On to `CC1(C)c2[nH]c3ccccc3c2C[C@@]2(C)C1CC[C@]1(C)C2C(=O)C=C2C3C[C@@](C)(C(=O)O)CC[C@]3(C)CC[C@]21C` (stereo partly drawn) [Compound 4a], for which the melting point was 245 to 248 °C. The same molecule returned an IC50 in data set [1] of 6.6 ± 0.13 µM.

On to `COc1ccc2[nH]c3c(c2c1)C[C@@]1(C)C(CC[C@]2(C)C1C(=O)C=C1C4C[C@@](C)(C(=O)O)CC[C@]4(C)CC[C@]12C)C3(C)C` (stereo partly drawn) [Compound 4b], for which the melting point lay within 243 to 244 °C. In addition, in data set [1], the IC50 was found to be 4.3 ± 0.26 µM.

In turn, `Cc1ccc2[nH]c3c(c2c1)C[C@@]1(C)C(CC[C@]2(C)C1C(=O)C=C1C4C[C@@](C)(C(=O)O)CC[C@]4(C)CC[C@]12C)C3(C)C` (stereo partly drawn) [Compound 4c] gave a melting point of 268 to 271 °C. This molecule also showed an IC50 in data set [1] of 8.3 ± 0.1 µM.

With `CC1(C)c2[nH]c3ccc(F)cc3c2C[C@@]2(C)C1CC[C@]1(C)C2C(=O)C=C2C3C[C@@](C)(C(=O)O)CC[C@]3(C)CC[C@]21C` (stereo partly drawn) [Compound 4d], the melting point lay within 245 to 248 °C. Moreover, half-maximal inhibition in data set [1] (IC50) was put at 5.2 ± 0.22 µM.

`CC1(C)c2[nH]c3ccc(Cl)cc3c2C[C@@]2(C)C1CC[C@]1(C)C2C(=O)C=C2C3C[C@@](C)(C(=O)O)CC[C@]3(C)CC[C@]21C` (stereo partly drawn) [Compound 4e] gave a melting point of 256 to 258 °C. Moreover, the half-inhibitory concentration (IC50) in data set [1] is 10.1 ± 0.21 µM.

In data set [1], `CC1(C(=O)O)CCC2(C)CCC3(C)C(=CC(=O)C4C5(C)Cc6c([nH]c7ccc(C(F)(F)F)cc67)C(C)(C)C5CCC43C)C2C1` (stereo not drawn) [Compound 4f] returned an IC50 of 2.5 ± 0.03 µM. Further, in data set [2], the “Inhibition Type” value is “non-competitive inhibition; also recorded: non-competitive inhibitors” and the Ki was 3.9 ± 0.5 µM.

Consider `CC1(C)c2c(cnn2-c2ccccc2)C[C@@]2(C)C1CC[C@]1(C)C2C(=O)C=C2C3C[C@@](C)(C(=O)O)CC[C@]3(C)CC[C@]21C` (stereo partly drawn) [Compound 5a], for which the melting point fell in the range of 243 to 245 °C. In data set [1], the IC50 came out at 5.1 ± 0.56 µM.

With `COc1ccc(-n2ncc3c2C(C)(C)C2CC[C@]4(C)C(C(=O)C=C5C6C[C@@](C)(C(=O)O)CC[C@]6(C)CC[C@]54C)[C@@]2(C)C3)cc1` (stereo partly drawn) [Compound 5b], the melting point lay within 208 to 211 °C. In data set [1], this molecule came in with an IC50 of 4.8 ± 0.2 µM.

As to `Cc1ccc(-n2ncc3c2C(C)(C)C2CC[C@]4(C)C(C(=O)C=C5C6C[C@@](C)(C(=O)O)CC[C@]6(C)CC[C@]54C)[C@@]2(C)C3)cc1` (stereo partly drawn) [Compound 5c], the IC50 in data set [1] was determined as 4.8 ± 0.3 µM.

As for `CC1(C)c2c(cnn2-c2ccc(F)cc2)C[C@@]2(C)C1CC[C@]1(C)C2C(=O)C=C2C3C[C@@](C)(C(=O)O)CC[C@]3(C)CC[C@]21C` (stereo partly drawn) [Compound 5d], the melting point lay in the range of 260 to 264 °C. Besides, the IC50 in data set [1] is 9.6 ± 0.2 µM.

In turn, `CC1(C)c2c(cnn2-c2ccc(Cl)cc2)C[C@@]2(C)C1CC[C@]1(C)C2C(=O)C=C2C3C[C@@](C)(C(=O)O)CC[C@]3(C)CC[C@]21C` (stereo partly drawn) [Compound 5e] showed a melting point of 263 to 266 °C. The molecule further showed an IC50 in data set [1] of 7.5 ± 0.22 µM.

In the case of `CC1(C(=O)O)CCC2(C)CCC3(C)C(=CC(=O)C4C5(C)Cc6cnn(-c7ccc(C(F)(F)F)cc7)c6C(C)(C)C5CCC43C)C2C1` (stereo not drawn) [Compound 5f], the melting point lay in the range of 270 to 271 °C. For the same molecule, the IC50 in data set [1] came to 4.4 ± 0.07 µM. In data set [2], the “Inhibition Type” value is “non-competitive inhibition; also recorded: non-competitive inhibitors” and the Ki was determined as 4.6 ± 0.6 µM.

Consider `Cc1ccc(C(=O)Nc2ccc(S(=O)(=O)O)c3cc(S(=O)(=O)O)cc(S(=O)(=O)O)c23)cc1NC(=O)c1cccc(NC(=O)Nc2cccc(C(=O)Nc3cc(C(=O)Nc4ccc(S(=O)(=O)O)c5cc(S(=O)(=O)O)cc(S(=O)(=O)O)c45)ccc3C)c2)c1` [SU, suramin], for which the “Inhibition Type” value in data set [2] is “competitive inhibition; also recorded: competitive inhibitor”.

Turning to `C[C@H]1[C@H](C)CC[C@]2(C(=O)O)CC[C@]3(C)C(=CC[C@@H]4[C@@]5(C)CC[C@H](O)C(C)(C)[C@@H]5CC[C@]43C)[C@H]12` [UA, ursolic acid], the “Inhibition Type” value in data set [2] is “non-competitive inhibition”; in data set [2] (listed as ursolic acid), “non-competitive inhibitor”.
